Measured values as given in PMC8833187 (Proceedings of the National Academy of Sciences of the …, 2022).

Assays:
[1] = test system: CaM/4Ca^2+ with R1 labels at A17C–R1 and A128C–R1; conditions: labelled versus unlabelled CaM/4Ca^2+; cited from earlier work
CaM/4Ca^2+ = assay: Combined time-resolved DEER and ssNMR: binding pathway of M13 to CaM/4Ca^2+; design: species or system Human

**Q.** Which “reduction of affinity for M13 by R1 labels at A17C–R1 and A128C–R1” value [1] does the source give for KRRWKKNFIAVSAANRFKKISSSGAL [M13] here?
**A.** about 2.5 fold

**Q.** What about the “τ, conformational rearrangement of state B to state C” value (CaM/4Ca^2+) of the same sequence?
**A.** 7 to 18 ms

**Q.** What about the “τ, state A* to collapsed intermediate B” value (CaM/4Ca^2+) of the same sequence?
**A.** 1.5 to 2.5 ms

**Q.** What about the “timescale τ, state A converted to final compact complex state C” value (CaM/4Ca^2+; abstract) of the same sequence?
**A.** ≤ 600 μs
